The record followed here is patent US20210255193A1, “LYSINE REACTIVE PROBES AND USES THEREOF” (The Scripps Research Institute, priority 2017, published 2021).

Each structure is given as a SMILES string.

Holding throughout (assay): competitive isoTOP-ABPP
Assay [1] addresses T1, ADK Adenosine kinase (Homo sapiens, UniProt P55263).
T1 construct: isoTOP-ABPP experiments performed in cell lysates (in vitro); endogenous in cells; host or cells: soluble proteome of human cancer cell lines (MDA-MB-231, Ramos, Jurkat)
Format: binding. The essentials: (§1)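 Cell lysate (0.5 ml) was pre-treated with fragment, 50 μM for activated esters or 100 μM for guanidinylating agents, versus DMSO, then labeled 1 h at ambient temperature with 0.1 mM STP-alkyne. Light/heavy TEV tags attached by CuAAC; R = DMSO/compound MS1 peak-area ratio, median per lysine.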

The target in assay [2] is T2, NONO Non-POU domain-containing octamer-binding protein (Homo sapiens, UniProt Q15233).
T2 construct: isoTOP-ABPP experiments performed in cell lysates (in vitro); endogenous in cells; host or cells: soluble proteome of human cancer cell lines (MDA-MB-231; Ramos and Jurkat also prepared)
T2 sequence (Q15233 1-471): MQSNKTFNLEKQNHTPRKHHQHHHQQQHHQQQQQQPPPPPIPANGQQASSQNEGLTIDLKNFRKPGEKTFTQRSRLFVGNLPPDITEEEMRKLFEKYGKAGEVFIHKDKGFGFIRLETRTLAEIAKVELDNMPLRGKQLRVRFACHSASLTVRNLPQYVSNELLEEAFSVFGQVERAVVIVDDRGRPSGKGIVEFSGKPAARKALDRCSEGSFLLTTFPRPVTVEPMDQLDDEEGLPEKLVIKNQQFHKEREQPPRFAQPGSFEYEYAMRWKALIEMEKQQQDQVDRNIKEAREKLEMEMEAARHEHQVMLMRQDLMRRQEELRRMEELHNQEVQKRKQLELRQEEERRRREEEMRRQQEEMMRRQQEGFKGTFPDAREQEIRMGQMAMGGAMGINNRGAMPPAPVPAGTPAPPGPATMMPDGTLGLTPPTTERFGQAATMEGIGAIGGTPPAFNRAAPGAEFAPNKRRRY
The method, boiled down: as §1

The target in assay [3] is T3, PNPO Pyridoxine-5-phosphate oxidase (Homo sapiens, UniProt Q9NVS9).
T3 construct: endogenous in cells; host or cells: MDA-MB-231 (soluble fraction of lysate)
T3 sequence (Q9NVS9 1-261): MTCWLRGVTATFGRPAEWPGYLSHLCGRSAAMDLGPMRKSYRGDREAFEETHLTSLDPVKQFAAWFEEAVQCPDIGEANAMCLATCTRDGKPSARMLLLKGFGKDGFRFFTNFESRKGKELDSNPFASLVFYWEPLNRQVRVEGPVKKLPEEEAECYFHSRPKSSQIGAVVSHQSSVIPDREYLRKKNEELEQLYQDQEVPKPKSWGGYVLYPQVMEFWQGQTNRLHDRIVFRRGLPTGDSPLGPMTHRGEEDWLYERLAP
The format is binding. The essentials:
as §1

For assay [4], the target named is T4, NPEPPS Puromycin-sensitive aminopeptidase (Homo sapiens, UniProt P55786).
T4 construct: isoTOP-ABPP experiments performed in cell lysates (in vitro); endogenous in cells; host or cells: soluble proteome of human cancer cell lines (MDA-MB-231, Ramos, Jurkat)
T4 sequence (P55786 whole entry): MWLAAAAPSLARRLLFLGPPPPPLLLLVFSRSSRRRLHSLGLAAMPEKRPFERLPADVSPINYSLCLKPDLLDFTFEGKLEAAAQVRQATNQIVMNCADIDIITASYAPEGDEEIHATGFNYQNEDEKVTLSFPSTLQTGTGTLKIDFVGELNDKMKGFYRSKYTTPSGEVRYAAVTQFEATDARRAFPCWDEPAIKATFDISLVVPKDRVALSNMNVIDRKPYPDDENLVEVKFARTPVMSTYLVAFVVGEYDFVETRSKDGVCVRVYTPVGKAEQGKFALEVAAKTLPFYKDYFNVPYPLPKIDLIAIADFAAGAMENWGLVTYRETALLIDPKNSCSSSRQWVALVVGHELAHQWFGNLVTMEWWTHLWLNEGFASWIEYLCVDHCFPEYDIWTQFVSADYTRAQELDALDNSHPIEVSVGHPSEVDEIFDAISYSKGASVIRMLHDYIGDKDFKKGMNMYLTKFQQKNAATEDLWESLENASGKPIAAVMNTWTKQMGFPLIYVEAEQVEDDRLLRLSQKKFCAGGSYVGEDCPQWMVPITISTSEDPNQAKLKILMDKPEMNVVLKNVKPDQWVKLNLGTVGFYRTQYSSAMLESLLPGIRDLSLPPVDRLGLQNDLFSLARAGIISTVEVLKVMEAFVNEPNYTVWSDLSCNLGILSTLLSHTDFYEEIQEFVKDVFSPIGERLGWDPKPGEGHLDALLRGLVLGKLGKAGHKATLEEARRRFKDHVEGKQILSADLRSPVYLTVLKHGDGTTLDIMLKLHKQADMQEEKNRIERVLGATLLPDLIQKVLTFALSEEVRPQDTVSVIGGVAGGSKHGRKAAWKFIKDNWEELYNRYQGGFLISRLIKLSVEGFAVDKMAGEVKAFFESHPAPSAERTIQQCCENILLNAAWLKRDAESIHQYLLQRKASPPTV
Format: binding. The essentials:
as §1

For assay [5], the target named is T5, DYNC1H1 Cytoplasmic dynein 1 heavy chain 1 (Homo sapiens, UniProt Q14204).
T5 construct: isoTOP-ABPP experiments performed in cell lysates (in vitro); endogenous in cells; host or cells: soluble proteome of human cancer cell lines (MDA-MB-231, Ramos, Jurkat)
The format is binding. The method, boiled down:
as §1

Assay [6] deals with T6, PSME3 Proteasome activator complex subunit 3 (Homo sapiens, UniProt P61289).
T6 construct: isoTOP-ABPP experiments performed in cell lysates (in vitro); endogenous in cells; host or cells: soluble proteome of human cancer cell lines (MDA-MB-231, Ramos, Jurkat)
T6 sequence (P61289 whole entry, one chain of several): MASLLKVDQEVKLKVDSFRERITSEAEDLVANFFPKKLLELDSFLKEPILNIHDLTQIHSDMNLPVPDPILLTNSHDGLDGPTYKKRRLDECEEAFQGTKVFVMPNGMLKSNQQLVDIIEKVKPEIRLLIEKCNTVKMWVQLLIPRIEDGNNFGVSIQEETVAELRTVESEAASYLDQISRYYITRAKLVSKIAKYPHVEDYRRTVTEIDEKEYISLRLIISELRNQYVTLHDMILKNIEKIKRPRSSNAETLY
The format is binding. The method, boiled down: as §1

T1 sequence (P55263 whole entry): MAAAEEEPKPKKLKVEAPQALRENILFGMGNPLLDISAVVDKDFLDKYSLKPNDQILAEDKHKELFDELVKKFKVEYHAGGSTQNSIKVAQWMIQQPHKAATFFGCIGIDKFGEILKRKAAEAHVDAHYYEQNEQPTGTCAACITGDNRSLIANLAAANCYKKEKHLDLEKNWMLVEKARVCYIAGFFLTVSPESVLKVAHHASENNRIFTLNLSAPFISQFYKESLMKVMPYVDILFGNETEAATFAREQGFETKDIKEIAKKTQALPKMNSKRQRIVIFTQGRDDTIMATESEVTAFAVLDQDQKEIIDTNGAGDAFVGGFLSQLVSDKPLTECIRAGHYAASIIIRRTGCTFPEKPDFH

For the compound `O=C(Oc1ccc([N+](=O)[O-])cc1[N+](=O)[O-])C(c1ccccc1)(c1ccccc1)c1ccccc1` [fragment 42, 2,4-Dinitrophenyl 2,2,2-triphenylacetate], the “isoTOP-ABPP ratio (R) at liganded lysine P55263_K88” value in assay [1] (50 uM, in vitro, sol, 231) is reported as 1.0. In addition, the “isoTOP-ABPP ratio (R) at liganded lysine Q15233_K467” value in assay [2] (50 uM, in vitro, sol, 231) was determined as 2.5. Further, in assay [3] (50 uM, in vitro, sol, 231), the “isoTOP-ABPP ratio (R) at liganded lysine Q9NVS9_K100” value is 0.9. Further, the “isoTOP-ABPP ratio (R) at liganded lysine P55786_K712” value in assay [4] (50 uM, in vitro, sol, 231) is recorded as 0.9. The “isoTOP-ABPP ratio (R) at liganded lysine Q14204_K1649” value in assay [5] (50 uM, in vitro, sol, 231) is listed as 0.8. For the same compound, in assay [6] (50 uM, in vitro, sol, 231), the “isoTOP-ABPP ratio (R) at liganded lysine P61289_K12” value stood at 0.9 and the “isoTOP-ABPP ratio (R) at liganded lysine P61289_K237” value came to 0.9.

With `O=C(ON1C(=O)CCC1=O)c1cc(C(F)(F)F)cc(C(F)(F)F)c1` [fragment 46, 3,5-Bis(trifluoromethyl)benzoic acid NHS ester], the “isoTOP-ABPP ratio, lysine P55263_K88” value in assay [1] (50 uM_231_sol_in vitro) is reported as 0.8. The “isoTOP-ABPP ratio, lysine Q15233_K467” value in assay [2] (50 uM_231_sol_in vitro) is listed as 0.4. In addition, in assay [3] (50 uM_231_sol_in vitro), the “isoTOP-ABPP ratio, lysine Q9NVS9_K100” value is reported as 1.0. For the same compound, the “isoTOP-ABPP ratio, lysine P55786_K712” value in assay [4] (50 uM_231_sol_in vitro) is given as 1.3. In addition, in assay [5] (50 uM_231_sol_in vitro), the “isoTOP-ABPP ratio, lysine Q14204_K1649” value was determined as 1.3. Besides, in assay [6] (50 uM_231_sol_in vitro), the “isoTOP-ABPP ratio, lysine P61289_K12” value stood at 0.7 and the “isoTOP-ABPP ratio, lysine P61289_K237” value stood at 0.9.
